The record followed here is US5109111A, “CRF antagonists” (The Salk Institute for Biological Studies, priority 1990, dated 1992).

Test [1] deals with TRF-stimulated secretion of TSH and prolactin. Nature of the test: Specificity: TRF-stimulated secretion of TSH and prolactin. In kind it is cell-based. The text has this:
(§1) Compared to AHC(9-41), a potent CRF antagonist disclosed in U.S. Pat. No. 4,605,642, this peptide was more than 17 times as potent.

Test [2] relates to GRF-stimulated secretion of GH. Kind of test: Specificity: GRF-stimulated secretion of GH. In kind it is cell-based.
Text: as §1

Another test relates to ACTH release. Kind of test: In vivo duration of lowering ACTH release after iv injection, against the Standard. On the set-up: species or system rats.
For test [3], the system named is GnRH-stimulated secretion of LH and FSH. Kind of test: Specificity: GnRH-stimulated secretion of LH and FSH. In kind it is cell-based.
Text: as §1

Test [4] concerns secretion of ACTH and β-endorphin-like (β-END-LI) immunoactivities. Kind of test: hCRF stimulation of ACTH and β-END-LI secretion in vivo in rats. On the procedure:
Plasma levels of ACTH and β-END-LI are elevated for at least 5-20 minutes following the intraveneous administration of hCRF to nembutal-anesthesized male rats and to quiescent male or female rats with indwelling intravenous cannulae. […] These antagonists should counteract such effects.

As to AHC(9-41), the “effect on TRF-stimulated secretion of TSH and prolactin” value in test [1] is given as “no effect”. Moreover, the “effect on GRF-stimulated secretion of GH” value in test [2] was “no effect”. In the test with ACTH release (dosages of 0.5 mg, two runs), the “duration of bioactivity (lowering ACTH release)” value is “about 40 minutes”. Further, the “duration of effectiveness in lowering ACTH release” value in the test on ACTH release (dose of 0.1 mg) is “no measurable effect”. In addition, the “effect on GnRH-stimulated secretion of LH and FSH” value in test [3] is reported as “no effect”.
Take `CC[C@H](C)[C@H](NC(=O)[C@@H](NC(=O)[C@H](CCC(=O)O)NC(=O)[C@H](CCSC)NC(=O)[C@H](CC(C)C)NC(=O)[C@H](CCCCN)NC(=O)[C@H](CCCNC(=N)N)NC(=O)[C@H](CC(N)=O)NC(=O)[C@H](CO)NC(=O)[C@H](Cc1c[nH]cn1)NC(=O)[C@H](C)NC(=O)[C@H](CCC(N)=O)NC(=O)[C@H](CCC(N)=O)NC(=O)[C@H](C)NC(=O)[C@H](CC(C)C)NC(=O)[C@H](CCC(N)=O)NC(=O)[C@H](CCC(=O)O)NC(=O)[C@H](C)NC(=O)[C@H](CCCNC(=N)N)NC(=O)[C@H](C)NC(=O)[C@H](CCSC)NC(=O)[C@H](CCC(=O)O)NC(=O)[C@H](CC(C)C)NC(=O)[C@@H](NC(=O)[C@H](CCC(=O)O)NC(=O)[C@H](CCCNC(=N)N)NC(=O)[C@H](CC(C)C)NC(=O)[C@H](CC(C)C)NC(=O)[C@H](Cc1c[nH]cn1)NC(=O)[C@H](Cc1ccccc1)NC(=O)[C@@H](NC(=O)[C@H](CC(C)C)NC(=O)[C@H](CC(=O)O)NC(=O)[C@H](CC(C)C)NC(=O)[C@H](CO)NC(=O)[C@@H](NC(=O)[C@@H]1CCCN1C(=O)[C@@H]1CCCN1C(=O)[C@H](CCC(=O)O)NC(=O)[C@H](CCC(=O)O)NC(=O)[C@@H](N)CO)[C@@H](C)CC)[C@@H](C)O)C(C)C)[C@@H](C)CC)C(N)=O` [hCRF]: the “time plasma levels of ACTH and β-END-LI are elevated” value in test [4] (intravenous hCRF, nembutal-anesthetized male rats and quiescent cannulated male or female rats) fell in the range of 5 to 20 min. Besides, the “stimulation of secretion of ACTH and β-END-LI in vivo” value in test [4] (several rat preparations) is “powerful stimulator”.
